Laboratory results as given in patent publication US8445529B2, “Indole derivative having, carbamoyl group, ureido group and substituted oxy group” (Santen Pharmaceutical Co., Ltd., priority 2008, dated 2013).
Each block holds one compound with its values, some of them ahead of it.

Target: T1, IKKβ (Homo sapiens, UniProt O14920)
T1 construct: purchased Upstate Biotechnology Inc. 14-485
T1 sequence (O14920 1-756): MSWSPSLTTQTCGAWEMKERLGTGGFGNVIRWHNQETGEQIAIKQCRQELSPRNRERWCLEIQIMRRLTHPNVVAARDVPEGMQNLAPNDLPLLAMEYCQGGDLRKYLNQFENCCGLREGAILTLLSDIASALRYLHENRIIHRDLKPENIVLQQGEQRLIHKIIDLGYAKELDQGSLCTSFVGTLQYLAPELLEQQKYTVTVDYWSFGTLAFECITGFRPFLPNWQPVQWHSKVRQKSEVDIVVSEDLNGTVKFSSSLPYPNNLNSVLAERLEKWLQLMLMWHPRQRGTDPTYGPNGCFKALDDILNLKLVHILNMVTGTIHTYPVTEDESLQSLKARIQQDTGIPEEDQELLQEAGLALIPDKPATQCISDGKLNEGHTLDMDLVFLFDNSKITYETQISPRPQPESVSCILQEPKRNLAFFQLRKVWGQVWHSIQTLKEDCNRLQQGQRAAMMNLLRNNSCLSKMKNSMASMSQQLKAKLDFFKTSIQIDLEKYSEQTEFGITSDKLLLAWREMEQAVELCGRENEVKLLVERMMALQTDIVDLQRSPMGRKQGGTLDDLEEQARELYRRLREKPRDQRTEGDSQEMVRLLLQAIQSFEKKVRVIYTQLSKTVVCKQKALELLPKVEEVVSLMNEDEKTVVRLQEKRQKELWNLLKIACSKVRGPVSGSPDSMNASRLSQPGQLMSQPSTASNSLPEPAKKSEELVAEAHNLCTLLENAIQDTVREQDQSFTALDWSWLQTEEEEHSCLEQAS
Test: IKKβ inhibition assay by fluorescence polarization (IMAP kit)
Type: biochemical
Conditions: test compound at 1 μM; inhibition rate exceeding 100% is indicated as 100%
Experimental: Details of the above will be described in detail in [Pharmacological Test] in Examples described below in this specification. IKKβ inhibition assay by fluorescence polarization was performed using IMAP™ IKKβ assay kit (manufactured by Molecular Devices Corporation, catalogue No. R8115) or IMAP™ FP Screening Express kit (manufactured by Molecular Devices Corporation, catalogue No. R8127).
In order to evaluate IKKβ inhibitory activity of the present compounds, an IKKβ inhibition assay by a fluorescence polarization method was conducted. The assay was conducted using IMAP™ IKKβ assay kit (manufactured by Molecular Devices Corporation, catalogue No. R8115) or IMAP™ FP Screening Express kit (manufactured by Molecular Devices Corporation, catalogue No. R8127) in accordance with the protocol attached to each kit. The specific methods are described below.
1) Complete Reaction Buffer: a complete reaction buffer was so prepared to obtain a final composition of 10 mM Tris-HCL (pH 7.2), 10 mM magnesium chloride, 0.1% bovine serum albumin, and 1 mM dithiothreitol.
2) Substrate Working Solution: 400 nM substrate working solution was prepared by dissolving and diluting a fluorescein-labeled IKKβ substrate peptide (amino acid sequence: GRHDSGLDSMK) with the complete reaction buffer.
3) Enzyme Working Solution: 0.2 units/mL enzyme working solution was prepared by diluting IKKβ solution (manufactured by Upstate Biotechnology Inc., catalogue No. 14-485) with the complete reaction buffer.
4) ATP Working Solution: 8 μM ATP working solution was prepared by dissolving ATP into ultrapure water followed by diluting it with the complete reaction buffer.
5) IMAP binding solution: After diluting an IMAP binding buffer with ultrapure water, an IMAP binding solution was prepared by diluting an IMAP binding reagent with the diluted IMAP binding buffer.
A test compound was dissolved in dimethyisulfoxide followed by diluting it with the complete reaction buffer to prepare 4 μM test compound solution.
1) To a 384-well plate, the test compound solution, the enzyme working solution, the substrate working solution, and the ATP working solution were added in an amount of 5 μL per well.
2) Incubation was performed at room temperature for 60 minutes under light shielding.
3) The IMAP binding solution was added in an amount of 60 μL per well.
4) Incubation was performed at room temperature for 30 minutes under light shielding.
5) Fluorescence polarization value of each well was measured by using Analyst™ HT (multimode plate reader manufactured by Molecular Devices Corporation) and Criterion Host Software v2.00 (manufactured by Molecular Devices Corporation).
6) Operations were performed in the same manner as in 1) to 5) except for changing the test compound to 0.4% dimethylsulfoxide. The obtained result was designated as a control.
7) Operations were performed in the same manner as in 1) to 5) except for changing the test compound and the enzyme working solution to 0.4% dimethylsulfoxide and the complete reaction buffer, respectively. The obtained result was designated as a background.
An IKKβ inhibition rate (%) was calculated by the following equation.
IKKβ inhibition rate (%)=100×{1-(fluorescence polarization value of test compound−fluorescence polarization value of background)/(fluorescence polarization value of control−fluorescence polarization value of background)}

SMILES: NC(=O)Nc1[nH]c2cc(Oc3ccc(Cl)cc3)ccc2c1C(N)=O [Compound No. 9-1, 2-Aminocarbonylamino-6-(4-chlorophenyloxy)indole-3-carboxamide]
inhibition at 1 µM: 92%

SMILES: NC(=O)Nc1[nH]c2cc(OCC3CC3)ccc2c1C(N)=O [Compound No. 3-2, 2-Aminocarbonylamino-6-cyclopropylmethyloxyindole-3-carboxamide]
inhibition at 1 µM: 91%

SMILES: CC(=O)Nc1ccc(Oc2ccc3c(C(N)=O)c(NC(N)=O)[nH]c3c2)cc1 [Compound No. 6-1, 6-(4-Acetylaminophenyloxy)-2-(aminocarbonylamino)indole-3-carboxamide]
inhibition at 1 µM: 98%

SMILES: NC(=O)Nc1[nH]c2cc(Oc3ccnc(Cl)c3)ccc2c1C(N)=O [Compound No. 4-3, 2-Aminocarbonylamino-6-(2-chloropyridine-4-yloxy)indole-3-carboxamide]
inhibition at 1 µM: 89%

SMILES: Cc1cc([N+](=O)[O-])ccc1Oc1ccc2c(C(N)=O)c(NC(N)=O)[nH]c2c1 [Compound No. 4-6, 2-Aminocarbonylamino-6-(2-methyl-4-nitrophenyloxy)indole-3-carboxamide]
inhibition at 1 µM: 97%

SMILES: NC(=O)Nc1[nH]c2cc(Oc3ccc([N+](=O)[O-])cc3)ccc2c1C(N)=O [Compound No. 4-1, 2-Aminocarbonylamino-6-(4-nitrophenyloxy)indole-3-carboxamide]
inhibition at 1 µM: 100%

Second part, the compound after the results:

inhibition at 1 µM: 78%
SMILES: COc1cccc2c(C(N)=O)c(NC(N)=O)[nH]c12 [Compound No. 1-3, 2-Aminocarbonylamino-7-methoxyindole-3-carboxamide]

inhibition at 1 µM: 91%
SMILES: C=Cc1cc(F)c2c(C(N)=O)c(NC(N)=O)[nH]c2c1OC [Compound No. 8-2, 2-Aminocarbonylamino-4-fluoro-7-methoxy-6-vinylindole-3-carboxamide]

inhibition at 1 µM: 87%
SMILES: COc1c(-c2ccoc2)cc(F)c2c(C(N)=O)c(NC(N)=O)[nH]c12 [Compound No. 8-3, 2-Aminocarbonylamino-4-fluoro-6-(furan-3-yl)-7-methoxyindole-3-carboxamide]

inhibition at 1 µM: 90%
SMILES: NC(=O)Nc1[nH]c2cc(O)ccc2c1C(N)=O [Compound No. 2-1, 2-Aminocarbonylamino-6-hydroxyindole-3-carboxamide]

inhibition at 1 µM: 60%
SMILES: COc1ccc(F)c2c(C(N)=O)c(NC(N)=O)[nH]c12 [Compound No. 1-4, 2-Aminocarbonylamino-4-fluoro-7-methoxyindole-3-carboxamide]

inhibition at 1 µM: 95%
SMILES: COc1ccc2c(C(N)=O)c(NC(N)=O)[nH]c2c1 [Compound No. 1-1, 2-Aminocarbonylamino-6-methoxyindole-3-carboxamide]
